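Briefly, cells in 96-well plates were exposed to five compound concentrations for 48 h, and endpoints were estimated by linear interpolation. GI50 = concentration required for 50% inhibition of growth.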 Activity calls are given as the source filed them. Rule as the data show it: active = GI50 up to about 1.1 µM and inactive = higher.
Legend:
Test in all cases: NCI-60 cell line screen, 48 h
[1] = tested on: UACC-257
[2] = tested on: MOLT-4
[3] = tested on: OVCAR-4
[4] = tested on: NCI-H226
[5] = tested on: OVCAR-5
[6] = tested on: SK-MEL-28
[7] = tested on: COLO 205
[8] = tested on: MCF7
[9] = tested on: SNB-19
[10] = tested on: UACC-62
[11] = tested on: U-251
[12] = tested on: SN12C
[13] = tested on: SF-295
[14] = tested on: DU-145
[15] = tested on: CCRF-CEM
[16] = tested on: T47D
[17] = tested on: SW-620
[18] = tested on: PC-3
[19] = tested on: SK-MEL-5
[20] = tested on: Malme-3M

## O=Cc1ccccc1B(O)O
[1]
  GI50: 25.8 µM (inactive)
[2]
  GI50: 1.09 µM (active)
[3]
  GI50: 0.368 µM (active)
[4]
  GI50: > 100 µM (inactive)
[5]
  GI50: 87.5 µM (inactive)
[6]
  GI50: 68.4 µM (inactive)
[7]
  GI50: 14.7 µM (inactive)
[8]
  GI50: 29.4 µM (inactive)
[9]
  GI50: > 100 µM (inactive)
[10]
  GI50: 31.5 µM (inactive)
[11]
  GI50: 30.7 µM (inactive)
[12]
  GI50: > 100 µM (inactive)
[13]
  GI50: > 100 µM (inactive)
[14]
  GI50: < 0.01 µM (active)
[15]
  GI50: 6.34 µM (inactive)
[16]
  GI50: 0.0147 µM (active)
[17]
  GI50: 25.7 µM (inactive)
[18]
  GI50: 22.1 µM (inactive)

## CC(C)CCCC(C)[C@H]1CC[C@H]2[C@@H]3CC[C@H]4C[C@@H](CCC=C(c5cc(Cl)c(O)c(C(=O)OC(C)C)c5)c5cc(Cl)c(O)c(C(=O)OC(C)C)c5)CC[C@]4(C)[C@H]3CC[C@]12C (some centres undefined)
[2]
  GI50: > 50 µM (inactive)
[3]
  GI50: > 50 µM (inactive)
[5]
  GI50: > 50 µM (inactive)
[6]
  GI50: > 50 µM (inactive)
[7]
  GI50: > 50 µM (inactive)
[8]
  GI50: > 50 µM (inactive)
[9]
  GI50: > 50 µM (inactive)
[10]
  GI50: > 50 µM (inactive)
[11]
  GI50: > 50 µM (inactive)
[19]
  GI50: > 50 µM (inactive)
[12]
  GI50: > 50 µM (inactive)
[13]
  GI50: > 50 µM (inactive)
[14]
  GI50: > 50 µM (inactive)
[15]
  GI50: > 50 µM (inactive)
[16]
  GI50: > 50 µM (inactive)
[17]
  GI50: > 50 µM (inactive)
[18]
  GI50: > 50 µM (inactive)

## c1ccc2c(c1)nc1n2CNC1
[1]
  GI50: > 100 µM (inactive)
[2]
  GI50: > 100 µM (inactive)
[3]
  GI50: > 100 µM (inactive)
[5]
  GI50: > 100 µM (inactive)
[6]
  GI50: > 100 µM (inactive)
[7]
  GI50: > 100 µM (inactive)
[8]
  GI50: > 100 µM (inactive)
[9]
  GI50: > 100 µM (inactive)
[10]
  GI50: > 100 µM (inactive)
[11]
  GI50: > 100 µM (inactive)
[19]
  GI50: > 100 µM (inactive)
[12]
  GI50: > 100 µM (inactive)
[13]
  GI50: > 100 µM (inactive)
[14]
  GI50: > 100 µM (inactive)
[15]
  GI50: > 100 µM (inactive)
[16]
  GI50: > 100 µM (inactive)
[17]
  GI50: > 100 µM (inactive)
[18]
  GI50: > 100 µM (inactive)

## Nc1nc2c(c(-c3ccccc3Cl)n1)COC/C2=C\c1ccccc1Cl
[1]
  GI50: 18.7 µM (inactive)
[2]
  GI50: 12.9 µM (inactive)
[3]
  GI50: 19.7 µM (inactive)
[4]
  GI50: 18.8 µM (inactive)
[5]
  GI50: 17.2 µM (inactive)
[7]
  GI50: 16.3 µM (inactive)
[8]
  GI50: 14.5 µM (inactive)
[9]
  GI50: 15.7 µM (inactive)
[10]
  GI50: 16 µM (inactive)
[11]
  GI50: 16.8 µM (inactive)
[19]
  GI50: 16.4 µM (inactive)
[12]
  GI50: 16.6 µM (inactive)
[13]
  GI50: 14.3 µM (inactive)
[14]
  GI50: 16.9 µM (inactive)
[15]
  GI50: 11.7 µM (inactive)
[16]
  GI50: 17.1 µM (inactive)
[17]
  GI50: 16.6 µM (inactive)
[18]
  GI50: 14.3 µM (inactive)

## COc1cc(OC)cc(-n2c(N)c(C#N)c3ccc([N+](=O)[O-])cc3c2=O)c1
[1]
  GI50: 35 µM (inactive)
[3]
  GI50: 16.6 µM (inactive)
[4]
  GI50: 23.9 µM (inactive)
[6]
  GI50: 43.1 µM (inactive)
[7]
  GI50: > 100 µM (inactive)
[9]
  GI50: 17.5 µM (inactive)
[10]
  GI50: 27.3 µM (inactive)
[11]
  GI50: 22.9 µM (inactive)
[19]
  GI50: 30.3 µM (inactive)
[12]
  GI50: 20.4 µM (inactive)
[14]
  GI50: 20.8 µM (inactive)
[16]
  GI50: 33.7 µM (inactive)
[17]
  GI50: > 100 µM (inactive)
[18]
  GI50: 41.3 µM (inactive)

## CC1(CO)COC(C)(C)OC1
[1]
  GI50: > 100 µM (inactive)
[2]
  GI50: > 100 µM (inactive)
[3]
  GI50: > 100 µM (inactive)
[4]
  GI50: > 100 µM (inactive)
[6]
  GI50: > 100 µM (inactive)
[7]
  GI50: > 100 µM (inactive)
[8]
  GI50: > 100 µM (inactive)
[9]
  GI50: > 100 µM (inactive)
[11]
  GI50: > 100 µM (inactive)
[19]
  GI50: > 100 µM (inactive)
[12]
  GI50: > 100 µM (inactive)
[13]
  GI50: > 100 µM (inactive)
[14]
  GI50: > 100 µM (inactive)
[15]
  GI50: > 100 µM (inactive)
[16]
  GI50: > 100 µM (inactive)
[17]
  GI50: > 100 µM (inactive)
[18]
  GI50: > 100 µM (inactive)

## CC1=C(C(=O)NNC(=O)CC#N)CC(C(=O)NNC(=O)CC#N)=C(C)N1
[1]
  GI50: > 100 µM (inactive)
[2]
  GI50: > 100 µM (inactive)
[3]
  GI50: > 100 µM (inactive)
[4]
  GI50: > 100 µM (inactive)
[5]
  GI50: > 100 µM (inactive)
[6]
  GI50: > 100 µM (inactive)
[7]
  GI50: > 100 µM (inactive)
[8]
  GI50: > 100 µM (inactive)
[9]
  GI50: > 100 µM (inactive)
[11]
  GI50: > 100 µM (inactive)
[19]
  GI50: > 100 µM (inactive)
[12]
  GI50: > 100 µM (inactive)
[13]
  GI50: > 100 µM (inactive)
[14]
  GI50: > 100 µM (inactive)
[16]
  GI50: 93.3 µM (inactive)
[17]
  GI50: > 100 µM (inactive)

## O=P1(N(CCCl)CCCl)Oc2ccc(Cl)cc2Sc2c(ccc(Cl)c2Cl)O1 (centres undefined)
[1]
  GI50: 10.4 µM (inactive)
[2]
  GI50: 3.96 µM (inactive)
[3]
  GI50: 23.9 µM (inactive)
[4]
  GI50: 8.26 µM (inactive)
[5]
  GI50: 27.4 µM (inactive)
[6]
  GI50: 11.5 µM (inactive)
[7]
  GI50: 8.18 µM (inactive)
[8]
  GI50: 6.38 µM (inactive)
[10]
  GI50: 17.1 µM (inactive)
[11]
  GI50: 6.76 µM (inactive)
[19]
  GI50: 5.02 µM (inactive)
[12]
  GI50: 11.9 µM (inactive)
[13]
  GI50: 3.18 µM (inactive)
[14]
  GI50: 63.7 µM (inactive)
[15]
  GI50: 4.41 µM (inactive)
[16]
  GI50: 8.38 µM (inactive)
[17]
  GI50: 6.68 µM (inactive)
[18]
  GI50: 3.28 µM (inactive)

## CON(C(=O)OC(C)(C)C)c1ccccc1
[1]
  GI50: > 100 µM (inactive)
[2]
  GI50: > 100 µM (inactive)
[3]
  GI50: > 100 µM (inactive)
[4]
  GI50: > 100 µM (inactive)
[20]
  GI50: > 100 µM (inactive)
[5]
  GI50: > 100 µM (inactive)
[6]
  GI50: > 100 µM (inactive)
[7]
  GI50: > 100 µM (inactive)
[9]
  GI50: > 100 µM (inactive)
[10]
  GI50: > 100 µM (inactive)
[11]
  GI50: > 100 µM (inactive)
[19]
  GI50: > 100 µM (inactive)
[13]
  GI50: > 100 µM (inactive)
[14]
  GI50: > 100 µM (inactive)
[15]
  GI50: > 100 µM (inactive)
[16]
  GI50: > 100 µM (inactive)
[17]
  GI50: > 100 µM (inactive)
[18]
  GI50: > 100 µM (inactive)

## COc1cc(C2S/C(=C/c3ccccc3)C(=O)N2c2ccc(NC(C)=O)cc2)cc(OC)c1OC (centres undefined)
[1]
  GI50: 37.2 µM (inactive)
[2]
  GI50: 4.61 µM (inactive)
[3]
  GI50: 19.3 µM (inactive)
[20]
  GI50: 22 µM (inactive)
[5]
  GI50: 28 µM (inactive)
[6]
  GI50: 30.8 µM (inactive)
[7]
  GI50: 15.2 µM (inactive)
[8]
  GI50: 23.9 µM (inactive)
[9]
  GI50: 38.1 µM (inactive)
[10]
  GI50: 20 µM (inactive)
[11]
  GI50: 15.6 µM (inactive)
[19]
  GI50: 13.1 µM (inactive)
[12]
  GI50: 15.8 µM (inactive)
[13]
  GI50: 36.6 µM (inactive)
[15]
  GI50: 0.319 µM (active)
[16]
  GI50: 11.6 µM (inactive)
[18]
  GI50: 11.8 µM (inactive)

## O=c1c(-c2ccccc2)nnc2n(Cc3ccccc3)c3ccccc3n12
[1]
  GI50: > 100 µM (inactive)
[2]
  GI50: > 100 µM (inactive)
[3]
  GI50: > 100 µM (inactive)
[4]
  GI50: 22.5 µM (inactive)
[20]
  GI50: > 100 µM (inactive)
[5]
  GI50: > 100 µM (inactive)
[6]
  GI50: > 100 µM (inactive)
[7]
  GI50: > 100 µM (inactive)
[8]
  GI50: > 100 µM (inactive)
[9]
  GI50: > 100 µM (inactive)
[11]
  GI50: > 100 µM (inactive)
[19]
  GI50: > 100 µM (inactive)
[12]
  GI50: > 100 µM (inactive)
[13]
  GI50: > 100 µM (inactive)
[14]
  GI50: > 100 µM (inactive)
[15]
  GI50: > 100 µM (inactive)
[16]
  GI50: > 100 µM (inactive)
[17]
  GI50: > 100 µM (inactive)

From ChEMBL document CHEMBL1201862, “PubChem BioAssay data set” (2004)
